# Results taken from paper PMC10301793 (Marine Drugs, 2023).
# Read-outs that look alike come from different tables or passages of the source. Where a SMILES comes first, the peptide text is derived from it. Bridges are numbered along the chain shown (N, C = ends).
# What was measured:
# α7 nAChR = α7 nAChR (Rattus norvegicus, UniProt Q05941); assay: cell-based
# α2β2 nAChR = α2β2 nAChR (Rattus norvegicus, UniProt P12389+P12390); assay: cell-based
# α3β2 nAChR = α3β2 nAChR (Rattus norvegicus, UniProt P04757+P12390); assay: cell-based; assay type: cell-based
# α3β4 nAChR = α3β4 nAChR (Rattus norvegicus, UniProt P04757+P12392); assay: cell-based
# α4β2 nAChR = α4β2 nAChR (Rattus norvegicus, UniProt P09483+P12390); assay: cell-based
# α6/α3β2β3 nAChR = α6/α3β2β3 nAChR (Rattus norvegicus, UniProt P04757+P12390+P12391+P43143); assay: cell-based
# α9α10 nAChR = α9α10 nAChR (Rattus norvegicus, UniProt P43144+Q9JLB5); assay: cell-based
# other nAChR subtypes = assay type: cell-based, rat
# Sequence of α9α10 nAChR (P43144 26-479 limits assumed): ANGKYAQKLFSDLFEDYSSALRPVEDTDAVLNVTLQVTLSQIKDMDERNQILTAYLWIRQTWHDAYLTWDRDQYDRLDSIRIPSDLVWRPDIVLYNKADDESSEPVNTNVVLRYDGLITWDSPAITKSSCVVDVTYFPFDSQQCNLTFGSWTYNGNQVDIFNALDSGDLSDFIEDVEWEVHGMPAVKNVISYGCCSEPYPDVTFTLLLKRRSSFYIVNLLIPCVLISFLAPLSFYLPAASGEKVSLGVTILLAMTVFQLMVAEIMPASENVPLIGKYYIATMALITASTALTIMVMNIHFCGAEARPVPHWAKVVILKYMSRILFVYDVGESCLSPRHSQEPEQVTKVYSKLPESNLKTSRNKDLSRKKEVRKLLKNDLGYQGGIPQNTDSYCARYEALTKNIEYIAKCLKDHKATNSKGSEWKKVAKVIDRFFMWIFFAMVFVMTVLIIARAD
# Sequence of α9α10 nAChR (Q9JLB5 25-447 limits assumed): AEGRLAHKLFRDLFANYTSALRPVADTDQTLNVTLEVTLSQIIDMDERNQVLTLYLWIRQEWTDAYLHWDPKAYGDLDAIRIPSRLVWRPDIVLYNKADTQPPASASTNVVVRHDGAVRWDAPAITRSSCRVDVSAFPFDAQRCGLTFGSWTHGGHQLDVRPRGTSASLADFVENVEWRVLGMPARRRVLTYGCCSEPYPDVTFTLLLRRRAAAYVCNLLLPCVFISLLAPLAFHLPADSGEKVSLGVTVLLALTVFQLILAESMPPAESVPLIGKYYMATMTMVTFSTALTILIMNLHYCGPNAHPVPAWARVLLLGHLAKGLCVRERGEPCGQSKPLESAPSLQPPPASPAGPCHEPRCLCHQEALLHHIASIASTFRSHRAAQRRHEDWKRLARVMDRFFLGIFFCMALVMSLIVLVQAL
# Sequence of α3β2 nAChR (P04757 26-499 limits assumed): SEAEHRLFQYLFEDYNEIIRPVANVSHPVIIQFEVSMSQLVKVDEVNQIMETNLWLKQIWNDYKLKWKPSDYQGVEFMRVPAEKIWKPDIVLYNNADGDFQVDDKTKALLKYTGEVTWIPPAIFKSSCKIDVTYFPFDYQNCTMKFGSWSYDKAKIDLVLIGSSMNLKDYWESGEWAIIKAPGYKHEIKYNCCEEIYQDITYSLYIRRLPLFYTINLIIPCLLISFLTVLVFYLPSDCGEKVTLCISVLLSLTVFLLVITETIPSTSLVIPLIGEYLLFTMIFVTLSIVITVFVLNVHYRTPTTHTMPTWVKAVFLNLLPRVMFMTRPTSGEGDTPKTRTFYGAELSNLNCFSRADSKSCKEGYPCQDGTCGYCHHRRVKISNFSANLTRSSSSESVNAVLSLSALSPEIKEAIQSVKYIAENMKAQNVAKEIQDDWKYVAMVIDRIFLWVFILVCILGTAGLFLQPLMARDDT
# Sequence of α3β2 nAChR (P12390 25-500 limits assumed): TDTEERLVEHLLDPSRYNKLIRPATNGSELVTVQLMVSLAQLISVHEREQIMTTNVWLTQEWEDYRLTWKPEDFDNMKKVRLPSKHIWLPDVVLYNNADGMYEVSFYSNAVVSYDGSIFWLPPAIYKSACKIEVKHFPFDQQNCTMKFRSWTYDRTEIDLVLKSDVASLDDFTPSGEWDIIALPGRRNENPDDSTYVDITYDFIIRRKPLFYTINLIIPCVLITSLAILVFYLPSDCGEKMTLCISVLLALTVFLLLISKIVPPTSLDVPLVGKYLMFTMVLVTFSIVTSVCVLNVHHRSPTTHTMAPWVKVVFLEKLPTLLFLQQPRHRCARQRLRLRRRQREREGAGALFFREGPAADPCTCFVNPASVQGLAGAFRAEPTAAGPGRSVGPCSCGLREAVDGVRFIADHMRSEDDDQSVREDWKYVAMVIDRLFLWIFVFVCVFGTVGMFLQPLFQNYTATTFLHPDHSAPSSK
# Sequence of α6/α3β2β3 nAChR (P04757 whole entry, looked up): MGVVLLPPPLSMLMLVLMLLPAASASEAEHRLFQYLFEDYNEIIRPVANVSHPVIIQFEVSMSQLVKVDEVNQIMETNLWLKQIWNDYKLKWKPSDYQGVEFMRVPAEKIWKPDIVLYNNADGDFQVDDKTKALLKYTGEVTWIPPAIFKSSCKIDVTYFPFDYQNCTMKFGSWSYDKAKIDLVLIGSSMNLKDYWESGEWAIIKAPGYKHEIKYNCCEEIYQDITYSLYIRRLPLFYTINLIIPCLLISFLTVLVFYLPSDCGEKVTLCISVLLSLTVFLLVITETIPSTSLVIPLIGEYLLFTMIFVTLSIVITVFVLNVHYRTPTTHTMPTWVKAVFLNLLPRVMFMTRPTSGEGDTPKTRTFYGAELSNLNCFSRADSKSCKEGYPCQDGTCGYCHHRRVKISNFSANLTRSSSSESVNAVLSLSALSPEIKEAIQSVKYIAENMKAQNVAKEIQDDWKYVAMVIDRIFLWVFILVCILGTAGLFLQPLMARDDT
# Sequence of α6/α3β2β3 nAChR (P12390 whole entry, looked up): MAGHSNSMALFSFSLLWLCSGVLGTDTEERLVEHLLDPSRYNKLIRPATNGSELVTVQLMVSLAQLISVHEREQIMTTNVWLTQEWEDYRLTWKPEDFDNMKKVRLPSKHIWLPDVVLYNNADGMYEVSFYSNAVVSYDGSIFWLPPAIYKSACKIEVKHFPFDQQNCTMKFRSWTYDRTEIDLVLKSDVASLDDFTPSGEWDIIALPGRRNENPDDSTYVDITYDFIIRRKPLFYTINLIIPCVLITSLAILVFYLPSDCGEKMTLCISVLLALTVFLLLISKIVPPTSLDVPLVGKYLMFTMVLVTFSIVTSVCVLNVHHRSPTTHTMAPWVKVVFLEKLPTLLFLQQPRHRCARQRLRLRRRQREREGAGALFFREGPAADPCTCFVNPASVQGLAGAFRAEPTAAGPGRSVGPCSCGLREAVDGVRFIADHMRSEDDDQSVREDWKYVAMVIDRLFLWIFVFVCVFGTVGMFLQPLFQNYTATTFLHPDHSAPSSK
# Sequence of α6/α3β2β3 nAChR (P12391 whole entry, looked up): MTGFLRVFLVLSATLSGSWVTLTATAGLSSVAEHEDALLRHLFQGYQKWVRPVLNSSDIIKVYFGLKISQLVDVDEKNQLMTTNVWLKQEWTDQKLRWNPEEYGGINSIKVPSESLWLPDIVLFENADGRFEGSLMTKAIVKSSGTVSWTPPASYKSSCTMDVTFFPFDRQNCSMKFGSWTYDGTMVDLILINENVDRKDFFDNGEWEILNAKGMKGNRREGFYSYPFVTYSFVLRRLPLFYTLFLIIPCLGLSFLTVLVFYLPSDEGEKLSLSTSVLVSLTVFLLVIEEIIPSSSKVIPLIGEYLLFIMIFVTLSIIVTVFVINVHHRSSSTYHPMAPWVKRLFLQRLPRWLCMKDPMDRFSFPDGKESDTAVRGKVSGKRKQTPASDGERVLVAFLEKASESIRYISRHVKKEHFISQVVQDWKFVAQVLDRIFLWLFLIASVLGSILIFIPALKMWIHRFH
# Sequence of α6/α3β2β3 nAChR (P43143 whole entry, looked up): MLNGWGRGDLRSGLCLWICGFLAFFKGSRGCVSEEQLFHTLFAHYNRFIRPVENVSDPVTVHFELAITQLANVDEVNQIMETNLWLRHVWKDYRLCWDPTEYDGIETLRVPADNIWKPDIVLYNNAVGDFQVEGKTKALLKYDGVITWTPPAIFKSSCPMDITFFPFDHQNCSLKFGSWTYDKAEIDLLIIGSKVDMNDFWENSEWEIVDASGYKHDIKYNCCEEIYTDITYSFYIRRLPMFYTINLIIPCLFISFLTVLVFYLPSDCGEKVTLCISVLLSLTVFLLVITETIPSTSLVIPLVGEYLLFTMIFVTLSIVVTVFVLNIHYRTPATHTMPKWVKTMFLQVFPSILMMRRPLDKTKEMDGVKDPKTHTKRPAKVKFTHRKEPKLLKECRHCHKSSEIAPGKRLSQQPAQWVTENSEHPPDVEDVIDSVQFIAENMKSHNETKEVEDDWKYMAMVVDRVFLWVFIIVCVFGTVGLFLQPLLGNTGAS
# Sequence of α2β2 nAChR (P12389 28-511 limits assumed): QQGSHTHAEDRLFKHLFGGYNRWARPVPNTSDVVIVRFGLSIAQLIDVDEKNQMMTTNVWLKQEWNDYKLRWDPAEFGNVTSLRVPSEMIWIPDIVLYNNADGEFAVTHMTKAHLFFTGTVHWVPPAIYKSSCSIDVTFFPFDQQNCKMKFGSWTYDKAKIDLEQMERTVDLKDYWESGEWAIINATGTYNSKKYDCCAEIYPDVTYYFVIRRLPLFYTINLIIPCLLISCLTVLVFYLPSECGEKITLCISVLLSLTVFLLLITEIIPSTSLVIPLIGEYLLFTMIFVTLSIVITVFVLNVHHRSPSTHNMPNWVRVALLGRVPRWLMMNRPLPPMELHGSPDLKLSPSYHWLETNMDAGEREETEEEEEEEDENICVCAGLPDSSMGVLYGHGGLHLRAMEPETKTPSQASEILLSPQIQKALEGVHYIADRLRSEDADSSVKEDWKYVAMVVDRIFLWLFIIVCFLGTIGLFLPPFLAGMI
# Sequence of α2β2 nAChR (P12390 25-500 limits assumed): as the sequence (P12390 25-500 limits assumed) above
# Sequence of α7 nAChR (Q05941 23-502 limits assumed): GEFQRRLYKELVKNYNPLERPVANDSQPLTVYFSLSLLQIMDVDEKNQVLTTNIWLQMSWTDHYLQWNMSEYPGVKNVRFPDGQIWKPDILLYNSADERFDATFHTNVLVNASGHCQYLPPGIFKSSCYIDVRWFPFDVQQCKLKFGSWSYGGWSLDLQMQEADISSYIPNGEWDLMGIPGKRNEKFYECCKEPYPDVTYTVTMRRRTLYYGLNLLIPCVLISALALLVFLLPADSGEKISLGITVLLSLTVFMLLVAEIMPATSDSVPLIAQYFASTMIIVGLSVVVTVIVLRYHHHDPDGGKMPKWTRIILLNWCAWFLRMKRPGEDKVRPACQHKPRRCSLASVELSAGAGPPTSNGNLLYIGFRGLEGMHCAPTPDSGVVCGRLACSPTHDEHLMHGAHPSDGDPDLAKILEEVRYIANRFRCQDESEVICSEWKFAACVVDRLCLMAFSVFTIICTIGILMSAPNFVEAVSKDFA
SMILES,IC50 (α7 nAChR) [nM],IC50 (α2β2 nAChR) [nM],Hill Slope (α3β2 nAChR),IC50 (α3β2 nAChR) [nM],fold lower potency than at α6/α3β2β3 (α3β2 nAChR),IC50 (α3β4 nAChR) [nM],IC50 (α4β2 nAChR) [nM],Hill Slope (α6/α3β2β3 nAChR),IC50 (α6/α3β2β3 nAChR) [nM],IC50 (α9α10 nAChR) [nM],inhibition (other nAChR subtypes) [%],IC50 (other nAChR subtypes; read-out: potency) [nM],Hill Slope (α7 nAChR),Hill Slope (α2β2 nAChR),fold less potency than at muscle-type α1β1γδ (α3β2 nAChR),Hill Slope (α3β4 nAChR),Hill Slope (α4β2 nAChR),Hill Slope (α9α10 nAChR),IC50 (other nAChR subtypes; read-out: IC50) [nM]
"CC(C)C[C@@H]1NC(=O)[C@H](C(C)C)NC(=O)[C@H](C)NC(=O)[C@@H]2CSSC[C@H](NC(=O)CN)C(=O)N[C@@H](CSSC[C@@H](C(N)=O)NC(=O)[C@H](Cc3c[nH]cn3)NC1=O)C(=O)N[C@@H](CO)C(=O)N[C@@H]([C@@H](C)O)C(=O)N1CCC[C@H]1C(=O)N1CCC[C@H]1C(=O)N2 [AdIA] (H-GCCSTPPCAVLHC-NH2; disulfide 2-8, 3-13)",> 10,> 10,−1.24,1380,at least 8 fold,> 10,> 10,−1.14,177,> 10,≤ 50,> 10000,–,–,–,–,–,–,–
"C[C@@H]1NC(=O)[C@@H]2CCCN2C(=O)[C@H](Cc2c[nH]cn2)NC(=O)[C@@H]2CSSC[C@@H](C(N)=O)NC(=O)[C@H](CC(N)=O)NC(=O)[C@H](Cc3ccc(O)cc3)NC(=O)[C@H](CCCCN)NC(=O)[C@H](CCCNC(=N)N)NC(=O)CNC(=O)[C@H](CSSC[C@H](NC(=O)[C@H](CCCNC(=N)N)NC(=O)CN)C(=O)N2)NC1=O [GaIA] (H-GRCCHPACGRKYNC-NH2; disulfide 3-8, 4-14)",–,–,−1.25,–,–,–,–,−0.87,–,777,–,–,−1.45,−1.09,about 25 fold,−1.37,−1.28,−0.93,> 1000
